Results on nine molecules are retold here after ChEMBL document CHEMBL1129887, “Dicarboxylic acid inhibitors of phospholipase A2” (Bioorg Med Chem Lett, 1997).

The subject of assay [1] is Mus musculus. Briefly: (§1) Antiinflammatory activity of compound was measured in the phorbol-ester induced mouse chronic ear edema assay. The format is functional.
Assay [2] has as its target T1, Phospholipase A2, membrane associated (Homo sapiens, UniProt P14555).
T1 sequence (P14555 whole entry): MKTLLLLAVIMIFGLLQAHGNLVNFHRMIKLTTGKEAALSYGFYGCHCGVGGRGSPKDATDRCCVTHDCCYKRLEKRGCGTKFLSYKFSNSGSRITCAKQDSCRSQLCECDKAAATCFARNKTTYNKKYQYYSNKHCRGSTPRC
Briefly: Compound was measured for the inhibition of human platelet PLA2 (HP-PLA2).

Assay [3] relates to Mus musculus. The assay is described as §1. The format is functional. This is another data set of the same source.

In the case of `C/C(=C\C(N)=O)C(=Cc1ccc2cc3c(cc2c1)C(C)(C)CCC3(C)C)c1cccc(C(N)=O)c1`, the ED50 with Mus musculus [1] is recorded as 186 ug ear-1 dose-1. The molecule also yielded an IC50 in assay [2] of 4 µM. `CCCCCCCCCCOc1ccc(C=C(/C(C)=C/C(=O)O)c2cccc(C(=O)O)c2)cc1` returned an IC50 in assay [2] of 7 µM. Molecule `C/C(=C\C(=O)O)C(=CCCc1ccc2cc3c(cc2c1)C(C)(C)CCC3(C)C)c1cccc(C(=O)O)c1` returned an ED50 in the assay on Mus musculus [1] of 89 ug ear-1 dose-1. In addition, in assay [2], the IC50 was determined as 2 µM. In the assay with Mus musculus [1], `CC1=C(/C=C/C(C)=C/C=C(/C(C)=C/C(=O)O)c2cccc(C(=O)O)c2)C(C)(C)CCC1` registered an ED50 of 160 ug ear-1 dose-1. `C/C(=C\C(=O)O)C(=Cc1ccc2cc(OCCCc3ccccc3)ccc2c1)c1cccc(C(=O)O)c1`: the ED50 with Mus musculus [1] was 30 ug ear-1 dose-1; in the assay on Mus musculus [3], 90 ug ear-1 dose-1. In assay [2], this molecule displayed an IC50 of 17 µM. On to `CCCCCCCCCCOc1ccc2cc(C=C(/C(C)=C/C(=O)O)c3cccc(C(=O)O)c3)ccc2c1`, for which, in the assay with Mus musculus [1], the ED50 stood at 31 ug ear-1 dose-1. In addition, it took 14 µM to reach half-maximal inhibition in assay [2] (IC50). Regarding `C/C(=C\C(=O)O)C(=Cc1ccc2cc3c(cc2c1)C(C)(C)CCC3(C)C)c1cccc(C(=O)O)c1`, the ED50 with Mus musculus [1] is listed as 9.37 ug ear-1 dose-1. Moreover, the half-maximal inhibitory concentration (IC50) in assay [2] came out at 17 µM. For the molecule `C/C(=C\C(=O)O)C(=CCCc1ccc(C23C[C@H]4C[C@@H](C2)C[C@@H](C3)C4)c(O)c1)c1cccc(C(=O)O)c1`, the IC50 in assay [2] was found to be 8 µM. Take `C/C(=C\C(=O)O)C(=Cc1ccc2cc(OCc3ccccc3)c(OCc3ccccc3)cc2c1)c1cccc(C(=O)O)c1`: in the assay with Mus musculus [1], the ED50 was 208 ug ear-1 dose-1.

A word on the IC50: it is the concentration that inhibits the measured activity by half. Higher therefore signals weaker potency.
